In this test the target is human recombinant 6His-Nterm SHP2 full-length (Thr2-Arg593) (Homo sapiens (Human), UniProt Q06124). The test is described as follows: SHP2 phosphatase assay (DiFMUP substrate, activating peptide). It is filed as biochemical. Here is the method: Inhibition of SHP2 phosphatase activity was evaluated using human recombinant 6His-Nterm (SEQ ID NO: 1) SHP2 full-length (Thr2-Arg593, R&D system), NsCs bi-phosphorylated activating peptide (NH2-LN(pY)AQLWHA(PEG8)LTI(pY)ATIRRF-Amide.acetate (SEQ ID NO: 2), Thermofischer Scientific) and DiFMUP as surrogate phosphatase substrate (Molecular Probes). All reactions were performed at room temperature in 384-well black polystyrene non-binding plate (Corning) with the assay buffer (50 mM HEPES-NaOH pH 7.2, 100 mM NaCl, 0.5 mM EDTA, 0.001% Brij35 including 0.02% BSA and 1 mM DTT added extemporaneously). SHP2 was pre-incubated at least 10 min with the activating peptide (0.2 nM and 100 nM, respectively). 10 μL of this mixture was added to the assay plate, that already contained 15 nL of the compound (1000-0.05 nM). After 30 min pre-incubation, the enzymatic reaction was initiated by the addition of 5 μL DiFMUP in assay buffer without BSA (20 μM). The reaction was stopped by the addition of 15 μL sodium pervanadate solution (100 μM) after 45 min incubation. The fluorescence signal was measured at excitation and emission wavelengths of 350 nm and 450 nm, respectively, using a Pherastar instrument (BMG-LabTech). Percentage of inhibition (I %) were calculated from the fluorescence signal at 450 nm of the positive and negative control using the following formula: […]
Positive control (Max): corresponds to the maximum fluorescence signal obtained in the presence of 15 nL DMSO replacing the inhibitor in the pre-incubation step.
Negative control (Min): corresponds to the minimum signal obtained in the presence of 1 μM of RMC-4550, the structure of which is shown below:
The IC50 were then calculated from a dose-response curve of 10 concentrations of tested compound using the 4-parameter logistic model:
The parameters A and (A+C) are the lower and upper limits, B is the slope of the curve at the inflexion point, M parameter is the logarithm of the abscissa at the inflexion point, and X is the concentration of compound.

The mark [1] stands for this setting: full-length SHP2 0.2 nM pre-activated with bi-phosphorylated peptide 100 nM, DiFMUP 20 μM, 10-concentration dose-response.

SMILES strings stand for the structures. A value given as a limit tells only on which side of the number the result lay.

Sequence of human recombinant 6His-Nterm SHP2 full-length (Thr2-Arg593) (Q06124 2-593): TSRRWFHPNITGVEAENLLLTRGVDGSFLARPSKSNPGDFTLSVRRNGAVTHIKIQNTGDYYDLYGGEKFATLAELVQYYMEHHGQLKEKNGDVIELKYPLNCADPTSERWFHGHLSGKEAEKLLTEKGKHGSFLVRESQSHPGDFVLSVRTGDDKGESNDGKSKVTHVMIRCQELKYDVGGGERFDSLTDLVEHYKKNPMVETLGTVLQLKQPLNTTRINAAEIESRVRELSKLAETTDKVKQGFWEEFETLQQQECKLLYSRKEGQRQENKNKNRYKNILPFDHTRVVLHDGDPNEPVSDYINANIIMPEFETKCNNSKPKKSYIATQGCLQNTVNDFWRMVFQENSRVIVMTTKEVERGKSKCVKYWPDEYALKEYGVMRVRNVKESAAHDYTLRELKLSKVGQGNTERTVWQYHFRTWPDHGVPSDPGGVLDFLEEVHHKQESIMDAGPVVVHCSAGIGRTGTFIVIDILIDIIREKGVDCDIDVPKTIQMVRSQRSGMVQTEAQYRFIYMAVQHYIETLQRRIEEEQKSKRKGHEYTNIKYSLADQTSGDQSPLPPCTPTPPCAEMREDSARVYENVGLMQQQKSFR

Consider `COc1cc2c(cn1)CC1(CCN(c3nc(C)c(-c4cnn(C)c4C)n4nccc34)CC1)[C@@H]2N` [Compound 132, (5S)-1′-[7-(1,5-dimethylpyrazol-4-yl)-6-methyl-pyrazolo[1,5-a]pyrazin-4-yl]-3-methoxy-spiro[5,7-dihydrocyclopenta[c]pyridine-6,4′-piperidine]-5-amine], for which the IC50 reads like this: (Table 11 summary) 0.034 µM; under setting [1], 0.034 µM.

As to `Cc1nc(N2CCC3(CC2)Cc2ccncc2[C@H]3N)c2ccnn2c1-c1cnn(C)c1C` [Compound 133, (7S)-1′-[7-(1,5-dimethylpyrazol-4-yl)-6-methyl-pyrazolo[1,5-a]pyrazin-4-yl]spiro[5,7-dihydrocyclopenta[c]pyridine-6,4′-piperidine]-7-amine], the IC50 is, setting by setting: (Table 11 summary) 0.021 µM; under setting [1], 0.021 µM.

For `Cc1nc(N2CCC3(CC2)Cc2ncccc2[C@H]3N)c2c(CO)cnn2c1-c1ccccc1F` [Compound 226, [4-[(5S)-5-aminospiro[5,7-dihydrocyclopenta[b]pyridine-6,4′-piperidine]-1′-yl]-7-(2-fluorophenyl)-6-methyl-pyrazolo[1,5-a]pyrazin-3-yl]methanol], the half-maximal inhibitory concentration (IC50) is, setting by setting: (Table 11 summary) more than 1 µM; under setting [1], more than 1 µM.

For orientation: IC50 means the concentration that inhibits the measured activity by half.

These data come from patent US20250282782A1, “PYRAZOLOPYRAZINE COMPOUNDS AS SHP2 INHIBITORS” (Genzyme Corporation, priority 2021, published 2025).
